Experimental data published in patent publication US20130165368A1, “ANTIMICROBIAL COMPOUNDS” (priority 2010, published 2013).
Like-named read-outs stand apart in the source and are kept apart here.

How the values were obtained:
Type in all cases: cell-based
[1] = test system: MRSA GER 1966/97 (Hanover IIIc); assay: MIC agar dilution, MRSA strain 36; settings: Staphylococcus aureus
Experimental: (§1) Molar equivalent concentrations were used to allow comparison between compounds of differing molecular mass. Due to weighing difficulties, any compound in solid form was melted in a water bath prior to dilution. To make ten-times strength concentrations, which takes into account agar dilution, 0.0352 mmol of each compound was weighed into plastic universal bottles and 4 mL of sterile distilled water (SDW) was added. To produce a homogenous emulsion the universals were vortexed; once achieved the emulsions were serial diluted by adding 2 mL to 2 mL of SDW.
(§2) For every 100 mL of Isosensitest agar (IST) (CM0471; Oxoid, Basingstoke, England), 3.1 g of the IST powder was added to 100 mL SDW (as per manufacturer's instructions) and sterilised for 15 minutes at 121° C. Once sterilised, the molten agar was cooled to 50° C. in a water-bath. Subsequently 4.8 g of CCEY powder (BC2160; Bioconnections, Wetherby, England), also known as Brazier's medium, was added to 100 mL SDW for every 100 mL of agar needed. This was then sterilised for 15 minutes at 121° C. Once sterilised the molten agar was cooled to 50° C. in a water-bath and 4 mL of egg-yolk emulsion (S2073; TCS Biosciences Ltd, Buckingham, United Kingdom) and 1 mL of lysed defibrinated horse blood (HB035; TCS Biosciences Ltd, Buckingham, United Kingdom) were also added for every 100 mL needed. Horse blood lysis is achieved by dilution to half concentration with SDW; when fully lysed the mixture will turn dark red in colour.
(§3) 18 mL agar was added to each universal and then poured into sterile Petri dishes. This step creates a 1/10 dilution resulting in agar plates of the required strength. Control plates for each set of strains were created by adding 18 mL of agar to 2 mL of SDW.
(§4) Suspensions of each bacterial species were prepared with a density equal to that of a 0.5 McFarland standard using a densitometer. All suspensions were made using sterile distilled water and fresh 18-20 hour cultures. As a 0.5 McFarland standard contains 1.5×10^8 CFU/mL and the multipoint inoculators applies 1 μL spots of liquid, each bacterial suspension was diluted 1/15 (20 μL suspension to 280 μL sterile distilled water).
(§5) Bacterial suspensions were prepared from fresh 18-24 hour cultures as previously described. 1 μL of each strain was inoculated onto all 100 agar plates containing a different chemical concentration and the 2 control plates. This was done using a multipoint inoculator which inoculates 20 strains per plate. All plates were incubated for 22 hours at 37° C. in aerobic conditions.
(§6) Each plate was examined for bacterial growth after 22 and 48 hours, with each being incubated in between examinations. A positive result was recorded as growth of ≧10 colonies. A negative result was recorded as growth of <10 colonies as this is equivalent to 99.9% inhibition. The lowest concentration of chemical that inhibited growth was recorded as the MIC. The results are recorded in Table IV below, where the numbers are quoted in mmol/L.
(§7) Given the positive performance of the ethoxylates of lauryl alcohol in reducing the MIC for a number of the micro-organisms tested, further MIC testing of Laureth-1 [C12E1] through to Laureth-8 [C12E8] was conducted on each of the following: • 10 strains of vancomycin-resistant enterococci (VRE)—listed in Table V below; and • 20 strains of methicillin-resistant Staphylococcus aureus (MRSA)—listed in Table VI.
(§8) The alkanol, alkanol derivatives, agar plates, and inocula were all prepared in the same way as described above.
(§9) The plates were examined in the same manner as described above and the results are recorded in Table VII below, where the numbers are quoted in mmol/L.

Candida glabrata = assay: MIC agar dilution, micro-organism 20 (3943); settings: Nakaseomyces glabratus, Candida glabrata 3943, read-out: MIC
In short: (§10)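 Twofold dilutions of compound emulsions in water were set in Isosensitest agar with Brazier's CCEY medium, egg yolk and lysed horse blood. Spots of 1 µL from 0.5 McFarland suspensions diluted 1/15 were incubated aerobically at 37 °C and read at 22 and 48 h. MIC (mmol/L) was the lowest concentration giving <10 colonies.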

[2] = test system: Enterococcus casseliflavus (VRE) Clin waste; assay: MIC agar dilution, VRE strain 23
Experimental: as §1, §2, §3, §4, §5, §6, §7, §8, §9

[3] = test system: Enterococcus faecalis (VRE) PHLS URINE 2000; assay: MIC agar dilution, VRE strain 21
Experimental: as §1, §2, §3, §4, §5, §6, §7, §8, §9

MRSA NCTC 11939 = assay: MIC agar dilution, MRSA strain 50; settings: Staphylococcus aureus, MRSA strain 50 NCTC 11939
Experimental: as §1, §2, §3, §4, §5, §6, §7, §8, §9

MRSA EMRSA 15 19972/98 = assay: MIC agar dilution, MRSA strain 39; settings: Staphylococcus aureus
Experimental: as §1, §2, §3, §4, §5, §6, §7, §8, §9

Enterococcus faecium = assay: MIC agar dilution, micro-organism 16 (7171); settings: Enterococcus faecium 7171, read-out: MIC
In short: as §10

[4] = test system: Staphylococcus epidermidis; assay: MIC agar dilution, micro-organism 14 (11047); settings: Staphylococcus epidermidis 11047, read-out: MIC
In short: as §10

MRSA FRA 920 = assay: MIC agar dilution, MRSA strain 38; settings: Staphylococcus aureus
Experimental: as §1, §2, §3, §4, §5, §6, §7, §8, §9

[5] = test system: MRSA GER 131/98 (Sger Iidc); assay: MIC agar dilution, MRSA strain 35; settings: Staphylococcus aureus
Experimental: as §1, §2, §3, §4, §5, §6, §7, §8, §9

[6] = test system: Enterococcus faecium (VRE) MB310; assay: MIC agar dilution, VRE strain 29
Experimental: as §1, §2, §3, §4, §5, §6, §7, §8, §9

Enterococcus faecalis = assay: MIC agar dilution, micro-organism 17 (775); settings: Enterococcus faecalis 775, read-out: MIC
In short: as §10

MRSA EMRSA 15 1729/98 = assay: MIC agar dilution, MRSA strain 42; settings: Staphylococcus aureus
Experimental: as §1, §2, §3, §4, §5, §6, §7, §8, §9

Measured: MIC

CCCCCCCCCCCCOCCOCCOCCOCCOCCOCCOCCOCCO [L8, Octaethylene Glycol Monododecyl Ether]
110 µM: [1]; 22 hrs | [1]; 48 hrs | [4]; 22 hrs | [4]; 48 hrs | Enterococcus faecalis; 22 hrs | Enterococcus faecalis; 48 hrs
> 440 µM: MRSA EMRSA 15 19972/98; 22 hrs | MRSA EMRSA 15 19972/98; 48 hrs | MRSA FRA 920; 22 hrs | MRSA FRA 920; 48 hrs | [5]; 48 hrs | MRSA EMRSA 15 1729/98; 22 hrs | MRSA EMRSA 15 1729/98; 48 hrs
440 µM: [2]; 22 hrs | [2]; 48 hrs | [5]; 22 hrs
> 880 µM: Candida glabrata; 22 h, 22 hrs | Candida glabrata; 48 h, 48 hrs | Enterococcus faecium; 22 hrs | Enterococcus faecium; 48 hrs | [6]; 22 hrs | [6]; 48 hrs
220 µM: [3]; 22 hrs | [3]; 48 hrs | MRSA NCTC 11939; 22 hrs | MRSA NCTC 11939; 48 hrs
